Data published in PMC9359617 (Nature structural & molecular biology, 2022).
Read-outs that look alike come from different tables or passages of the source.

What was measured:
CaChs2 [1] = biological target: T1, CaChs2 (Candida albicans, UniProt P30572); experiment: CaChs2 inhibition assay; format: biochemical
T1 sequence (P30572 1-1009): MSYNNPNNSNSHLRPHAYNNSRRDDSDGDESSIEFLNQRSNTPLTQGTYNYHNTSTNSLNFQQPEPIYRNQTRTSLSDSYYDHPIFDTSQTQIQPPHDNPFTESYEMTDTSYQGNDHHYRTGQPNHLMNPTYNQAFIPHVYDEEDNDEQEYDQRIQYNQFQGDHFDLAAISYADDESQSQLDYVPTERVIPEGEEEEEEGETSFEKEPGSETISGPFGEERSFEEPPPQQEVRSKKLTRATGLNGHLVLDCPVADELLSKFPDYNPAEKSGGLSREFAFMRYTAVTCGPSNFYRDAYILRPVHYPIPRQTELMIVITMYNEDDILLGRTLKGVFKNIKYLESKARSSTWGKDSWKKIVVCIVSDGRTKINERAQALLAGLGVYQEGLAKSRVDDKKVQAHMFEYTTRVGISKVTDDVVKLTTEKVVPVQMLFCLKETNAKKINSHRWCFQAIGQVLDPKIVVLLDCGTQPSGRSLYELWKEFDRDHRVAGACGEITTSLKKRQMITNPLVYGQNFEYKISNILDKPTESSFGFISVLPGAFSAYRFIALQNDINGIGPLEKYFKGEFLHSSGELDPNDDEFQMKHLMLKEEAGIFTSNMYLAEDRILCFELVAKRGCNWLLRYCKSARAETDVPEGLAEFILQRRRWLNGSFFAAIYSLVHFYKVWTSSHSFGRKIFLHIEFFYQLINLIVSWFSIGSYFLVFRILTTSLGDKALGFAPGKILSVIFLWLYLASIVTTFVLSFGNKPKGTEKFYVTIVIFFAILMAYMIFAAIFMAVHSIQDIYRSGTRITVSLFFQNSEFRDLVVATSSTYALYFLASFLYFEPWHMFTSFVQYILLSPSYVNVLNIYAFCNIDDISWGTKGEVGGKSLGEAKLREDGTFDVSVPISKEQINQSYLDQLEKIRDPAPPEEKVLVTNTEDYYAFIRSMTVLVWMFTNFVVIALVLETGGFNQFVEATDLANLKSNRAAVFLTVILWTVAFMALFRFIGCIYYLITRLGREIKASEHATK

CaChs2 T631A = experiment: CaChs2 inhibition assay, T631A mutant; format: biochemical, Candida albicans; details: alanine mutation of T631
CaChs2 [2] = biological target: T1, CaChs2; experiment: CaChs2 activity assay; format: biochemical; details: purified recombinant CaChs2; formation of water-insoluble chitin polymers from UDP-GlcNAc
CaChs2 W647A = experiment: Isothermal titration calorimetry, CaChs2 W647A; format: binding, Candida albicans; details: ITC
CaChs2 Q643A = CaChs2 Q643A (Candida albicans, UniProt P30572, Q643A); experiment: Isothermal titration calorimetry, CaChs2 Q643A; format: binding; details: Q643A mutant, ITC
C. albicans = details: against C. albicans; lower end printed as < 0.5; cited from earlier work
CaChs2 WT = CaChs2 WT (Candida albicans, UniProt P30572); experiment: Isothermal titration calorimetry, CaChs2 WT; format: binding
cryo-EM structure = biological target: the molecule itself; experiment: cryo-EM structure

With `NC(=O)OC[C@H](O)[C@@H](O)[C@H](N)C(=O)N[C@H](C(=O)O)[C@H]1O[C@@H](n2cc(C(=O)O)c(=O)[nH]c2=O)[C@H](O)[C@@H]1O` [polyoxin D] the Ki (CaChs2 [1]; purified CaChs2) was 3200 ± 1400 nM and the “decrease of affinity for polyoxin D, mutant vs WT” value (CaChs2 T631A) was “about threefold”.

`CC(=O)N[C@H]1[C@@H](OP(=O)(O)OP(=O)(O)OC[C@H]2O[C@@H](n3ccc(=O)[nH]c3=O)[C@H](O)[C@@H]2O)O[C@H](CO)[C@@H](O)[C@@H]1O` [UDP-GlcNAc] gave a Km (CaChs2 [2]) of 6 ± 0.7 mM and a kcat (CaChs2 [2]) of 8.6 ± 2.7 min−[1].

With `C[C@@H]([C@H](N)C(=O)N[C@H](C(=O)O)[C@H]1O[C@@H](n2ccc(=O)[nH]c2=O)[C@H](O)[C@@H]1O)[C@H](O)c1ccc(O)cn1` [nikkomycin Z] the Ki (CaChs2 [1]) was 1500 ± 500 nM, the “difference between Ki of the inhibitor and Km of UDP-GlcNAc” value (CaChs2 [1]; affinity of nikkomycin Z to CaChs2 compared with UDP-GlcNAc) was “three orders of magnitude” and the “reduction of affinity to nikkomycin Z, mutant vs WT” value (CaChs2 W647A) was “about 18 fold”. For the same molecule, the “effect of the mutation on affinity to nikkomycin Z” value (CaChs2 Q643A) was “only moderately affects the affinity”, the MIC80 (C. albicans) was 0.5 to 32 µg/mL and the Kd (CaChs2 WT) was about 190 nM.

B1: Chs2 from Candida albicans (CaChs2), wild type (enzyme, UniProt P30572 1-1009, looked up)
chain: MSYNNPNNSNSHLRPHAYNNSRRDDSDGDESSIEFLNQRSNTPLTQGTYNYHNTSTNSLNFQQPEPIYRNQTRTSLSDSYYDHPIFDTSQTQIQPPHDNPFTESYEMTDTSYQGNDHHYRTGQPNHLMNPTYNQAFIPHVYDEEDNDEQEYDQRIQYNQFQGDHFDLAAISYADDESQSQLDYVPTERVIPEGEEEEEEGETSFEKEPGSETISGPFGEERSFEEPPPQQEVRSKKLTRATGLNGHLVLDCPVADELLSKFPDYNPAEKSGGLSREFAFMRYTAVTCGPSNFYRDAYILRPVHYPIPRQTELMIVITMYNEDDILLGRTLKGVFKNIKYLESKARSSTWGKDSWKKIVVCIVSDGRTKINERAQALLAGLGVYQEGLAKSRVDDKKVQAHMFEYTTRVGISKVTDDVVKLTTEKVVPVQMLFCLKETNAKKINSHRWCFQAIGQVLDPKIVVLLDCGTQPSGRSLYELWKEFDRDHRVAGACGEITTSLKKRQMITNPLVYGQNFEYKISNILDKPTESSFGFISVLPGAFSAYRFIALQNDINGIGPLEKYFKGEFLHSSGELDPNDDEFQMKHLMLKEEAGIFTSNMYLAEDRILCFELVAKRGCNWLLRYCKSARAETDVPEGLAEFILQRRRWLNGSFFAAIYSLVHFYKVWTSSHSFGRKIFLHIEFFYQLINLIVSWFSIGSYFLVFRILTTSLGDKALGFAPGKILSVIFLWLYLASIVTTFVLSFGNKPKGTEKFYVTIVIFFAILMAYMIFAAIFMAVHSIQDIYRSGTRITVSLFFQNSEFRDLVVATSSTYALYFLASFLYFEPWHMFTSFVQYILLSPSYVNVLNIYAFCNIDDISWGTKGEVGGKSLGEAKLREDGTFDVSVPISKEQINQSYLDQLEKIRDPAPPEEKVLVTNTEDYYAFIRSMTVLVWMFTNFVVIALVLETGGFNQFVEATDLANLKSNRAAVFLTVILWTVAFMALFRFIGCIYYLITRLGREIKASEHATK
For B1, the “stoichiometry N” value (cryo-EM structure) was 2.
